Measured values reported in ChEMBL document CHEMBL5729244, “Heterocycle compounds as Tyro3, Axl and MerTK (TAM) family of receptor tyrosine kinase inhibitors” (2022).

Legend:
[1] = target: T1, Tyrosine-protein kinase receptor UFO (Homo sapiens, UniProt P30530)
T1 sequence (P30530 whole entry): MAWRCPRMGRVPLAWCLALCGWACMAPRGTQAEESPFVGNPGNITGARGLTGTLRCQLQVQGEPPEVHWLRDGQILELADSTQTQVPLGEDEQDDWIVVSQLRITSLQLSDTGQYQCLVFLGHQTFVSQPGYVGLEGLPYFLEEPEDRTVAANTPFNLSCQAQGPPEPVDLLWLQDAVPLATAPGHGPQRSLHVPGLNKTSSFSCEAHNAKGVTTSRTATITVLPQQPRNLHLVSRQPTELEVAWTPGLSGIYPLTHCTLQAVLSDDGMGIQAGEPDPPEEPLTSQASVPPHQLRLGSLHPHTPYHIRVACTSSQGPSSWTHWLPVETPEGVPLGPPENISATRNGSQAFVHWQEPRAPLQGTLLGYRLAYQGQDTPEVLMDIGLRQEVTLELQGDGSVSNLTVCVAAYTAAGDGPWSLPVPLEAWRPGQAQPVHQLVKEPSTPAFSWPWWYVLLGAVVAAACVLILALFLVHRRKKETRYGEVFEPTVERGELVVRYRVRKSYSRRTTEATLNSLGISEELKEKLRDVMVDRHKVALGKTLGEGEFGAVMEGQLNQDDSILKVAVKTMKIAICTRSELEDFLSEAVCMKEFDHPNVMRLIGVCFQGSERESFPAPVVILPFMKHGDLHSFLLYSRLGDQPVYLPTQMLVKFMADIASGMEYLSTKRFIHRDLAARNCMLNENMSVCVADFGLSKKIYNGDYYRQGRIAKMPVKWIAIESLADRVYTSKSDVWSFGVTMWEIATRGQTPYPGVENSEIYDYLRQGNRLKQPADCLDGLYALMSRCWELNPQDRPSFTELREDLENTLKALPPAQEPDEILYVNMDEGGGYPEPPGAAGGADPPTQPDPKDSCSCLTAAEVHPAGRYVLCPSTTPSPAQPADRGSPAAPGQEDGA

[2] = target: T2, Tyrosine-protein kinase Mer (Homo sapiens, UniProt Q12866)
T2 sequence (Q12866 whole entry): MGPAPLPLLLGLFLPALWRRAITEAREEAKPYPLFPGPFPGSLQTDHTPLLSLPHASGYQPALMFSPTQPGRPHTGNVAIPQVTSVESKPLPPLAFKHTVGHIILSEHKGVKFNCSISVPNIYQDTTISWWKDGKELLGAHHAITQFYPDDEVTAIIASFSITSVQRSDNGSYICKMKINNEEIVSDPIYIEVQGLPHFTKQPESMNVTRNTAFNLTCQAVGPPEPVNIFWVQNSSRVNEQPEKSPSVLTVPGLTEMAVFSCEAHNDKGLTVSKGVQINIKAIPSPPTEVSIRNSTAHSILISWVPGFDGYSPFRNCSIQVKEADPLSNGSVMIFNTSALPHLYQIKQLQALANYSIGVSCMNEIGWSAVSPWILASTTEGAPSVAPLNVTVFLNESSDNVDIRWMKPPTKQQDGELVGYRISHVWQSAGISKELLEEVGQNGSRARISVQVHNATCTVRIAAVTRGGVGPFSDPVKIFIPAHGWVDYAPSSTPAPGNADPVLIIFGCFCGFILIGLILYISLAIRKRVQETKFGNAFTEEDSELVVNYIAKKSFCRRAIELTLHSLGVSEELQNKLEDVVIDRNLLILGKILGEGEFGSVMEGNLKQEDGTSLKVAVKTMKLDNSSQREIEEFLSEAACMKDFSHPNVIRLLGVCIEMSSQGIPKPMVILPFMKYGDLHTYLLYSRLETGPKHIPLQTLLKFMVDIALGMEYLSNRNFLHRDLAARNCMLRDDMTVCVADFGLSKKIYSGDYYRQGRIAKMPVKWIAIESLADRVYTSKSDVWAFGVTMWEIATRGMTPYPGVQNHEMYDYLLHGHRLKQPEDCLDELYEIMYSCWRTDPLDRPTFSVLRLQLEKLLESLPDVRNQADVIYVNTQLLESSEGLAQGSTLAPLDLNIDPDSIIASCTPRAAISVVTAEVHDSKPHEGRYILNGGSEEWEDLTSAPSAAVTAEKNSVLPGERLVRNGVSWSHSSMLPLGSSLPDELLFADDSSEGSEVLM

IC50 [1]	IC50 [2]	Structure (SMILES)
< 30 nM	–	COc1nc(Nc2ccc(CN3CCC(C)CC3)cc2)nc2[nH]cc(-c3ccc(F)cc3F)c12
< 30 nM	> 1000 nM	COCCOc1nc(Nc2ccc(CN3CCN(C)CC3)cc2)nc2[nH]cc(-c3ccc4c(n3)CN(C)S4(=O)=O)c12
